No end group written: not given here.
Assays:
[1] = Release of loaded protein or peptide from coated ET tubes in PBS; type: physicochemical
Description: Release Quantification. Release of loaded protein or peptide from ET tubes was achieved from quartered tube segments in PBS at 37° C. while shaking at 100 rpm. FITC-BSA elution and PLGA degradation samples were obtained by completely removing the supernatant and adding fresh PBS to each well. […] PLGA degradation was quantified via EnzyFluo L-Lactate Assay Kit (Bioassay Systems). Peptide release was quantified via Pierce Quantitative Fluorometric Peptide Assay (Thermo Scientific).

S. epidermidis = test: Minimum inhibitory concentration (MIC) of Lasio; type: cell-based, Staphylococcus epidermidis; parameters: unit not given here; conditions: data not shown
Description: (§1) Bacteria Culture. Staphylococcus epidermidis (Winslow and Winslow) Evans (ATCC 13990) was cultured in nutrient broth aerobically at 37° C. Streptococcus pneumoniae (Klein) Chester (NCTC 7465; ATCC 33400) was cultured in Brain Heart Infusion Broth and plated on Trypticase soy agar with 5% defibrinated sheep blood (Colorado Serum Co.) aerobically (5% CO2) at 37° C.
(§2) Antibacterial Activity Assay.

[2] = tested on: Staphylococcus epidermidis; test: Adherent bacterial viability on ET tubes (colony counts); type: cell-based; conditions: 24 hours, 1×MIC/PLGA vs uncoated, 0.5×MIC/PLGA p<0.0001, free peptide vs 1×MIC/PLGA p=0.0015
Description: as §1, §2

[3] = tested on: patient derived laryngotracheal fibroblasts
Description: Peptide/PLGA coated tubes and controls were first submerged in Fluorobrite DMEM supplemented with 10% FBS, 2% Anti-Anti, 1% MEM NEAA, and incubated for 24 hours at 37° ° C. while shaking at 100 rpm to achieve release. Simultaneously, laryngotracheal fibroblasts were seeded at 7,000 cells/well in 48 well plates and allowed to adhere overnight in a culture atmosphere at 37° C., 95% relative humidity, and 5% CO2. Cell media was replaced with appropriate tube releasate and incubated for 24 hours in the culture atmosphere. Invitrogen AlamarBlue HS Cell Viability Reagent (ThermoFisher Scientific) was used to quantify viability.

[4] = tested on: Staphylococcus epidermidis; test: Crystal violet biofilm assay on ET tubes; type: cell-based; conditions: 24 hours, 1×MIC/PLGA vs uncoated, 0.5×MIC/PLGA, free peptide vs 1×MIC/PLGA p<0.0001
Description: as §1, §2

Substance	linear release rate ([1]; mouse sized tube loaded with 17.04 μg peptide, over 9 days) [µg/day]	encapsulated peptide released ([1]; mouse sized tube, by day 9) [%]	minimum inhibitory concentration (S. epidermidis)	linear release ([1]; from PLGA coated ET tubes, PBS at 37° C. shaking at 100 rpm, after initial burst release) [µg/day]	viability of adherent bacteria [2]	cytotoxicity toward human patient-derived laryngotracheal fibroblasts [3]	adherent bacterial populations (crystal violet biofilm assay) [4]	viability [%]
A4K14-citropin 1.1	0.397	~80	–	–	–	–	–	–
VNWKKILGKIIKVVK-NH2 (C-terminus assumed) [Lasio, Lasioglossin-III]	–	–	1.25	0.28	inhibited the viability of adherent bacteria	not cytotoxic	significant reduction in adherent bacteria	62.3

Reference: patent publication US20240189490A1, “ANTIMICROBIAL ELUTING AIRWAY DEVICES” (priority 2021, published 2024)
